Measured values as given in US8715628B1, “Cosmetic compositions and methods for inhibiting or reducing trypsin activity” (The Procter & Gamble Company, priority 2011, dated 2014).
Values joined by “and” are separate entries in the source; they are usually repeats but may differ in a detail not shown here. Equal entries are not always repeated.

Molecular target: T1, Trypsin from a bovine pancreas (Bos taurus, UniProt P00760)
T1 construct: Trypsin from a bovine pancreas; purchased Sigma-Aldrich T8802; host or cells: bovine pancreas (tissue-derived)
T1 sequence (P00760 24-246): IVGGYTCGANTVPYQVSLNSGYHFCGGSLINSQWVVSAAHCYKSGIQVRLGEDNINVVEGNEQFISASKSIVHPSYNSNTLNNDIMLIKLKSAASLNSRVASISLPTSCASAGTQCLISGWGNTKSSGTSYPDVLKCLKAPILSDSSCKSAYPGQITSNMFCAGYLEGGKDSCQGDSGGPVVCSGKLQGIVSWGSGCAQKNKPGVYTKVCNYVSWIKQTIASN
Assay: Trypsin assay (fluorogenic substrate Z-Phe-Arg-7-amido-4-methylcoumarin, kinetic slope vs vehicle control)
Format: biochemical
Conditions: single-well values, n=8 wells
Procedure: Trypsin from a bovine pancreas (available from Sigma-Aldrich, USA, Catalog #T8802) is diluted in phosphate buffered saline (PBS) to make a stock of about 0.001% trypsin. In a 96 well white plate with clear bottom (e.g., Corning Costar #3904 available from _VWR International, LLC, Pennsylvania, USA), about 90 uL of 0.001% trypsin stock is mixed with about 10 uL of a test compound (e.g., N-undecylenoyl-L-phenylalanine) or vehicle control, such as dimethyl sulfoxide (DMSO) or water. Typically, there are 8 control wells per plate. The assay is initiated by the addition of 100 uL of the substrate, Z-Phe-Arg-7-amido-4-methylcoumarin (e.g., Calbiochem Catalog #03-32-1501-10 mM in PBS available from Life Technologies, California, USA) and the well plate is monitored in a fluorescent plate reader (e.g., a Gemini plate reader) with an excitation wavelength of 360 nm and an emission wavelength of 460 nm. The reaction progress is measured in a kinetic mode for 5 minutes. SoftMaxPro Data Analysis Software (available from Molecular Devices, Inc.) is used to fit a line to the data points for each well, and the slopes of the lines are then calculated. The slopes of each test compound well are compared to the average of the slopes of the vehicle control wells of a plate to determine the percentage of trypsin activity using equation (1) below. As the trypsin hydrolyzes the substrate, the fluorescence of the 7-amido-coumarin group increases, causing a growth in the signal which reflects the level of trypsin activity. An inhibitor attenuates the fluorescence growth resulting in a smaller slope. Percent(%)trypsin activity=[slope of test well]/[average slope of vehicle control wells] (1)
Using generally the method outlined above, the percentage of trypsin activity was measured for 1:900 dilution of 1% N-undecylenoyl-L-phenylalanine, 3% myo-inositol, 5% niacinamide, and 5% hexyldecanol using a sample size of n=8 wells for each compound. […]

NC(=O)c1cccnc1 [Niacinamide, niacinamide]
% Activity (percentage of trypsin activity) (1:900 dilution of 5% niacinamide): 106.0% and 91.8% and 91.3% and 107.7% and 111.1% and 109.1% and 93.9% and 88.7%

CCCCCCCCC(CO)CCCCCC (stereo not shown) [Hexyldecanol, 2-Hexyldecan-1-ol]
% Activity (percentage of trypsin activity) (1:900 dilution of 5% hexyldecanol): 87.1% and 90.7% and 85.7% and 100.0% and 112.4% and 112.0% and 88.7% and 95.4%

O[C@H]1[C@H](O)[C@@H](O)[C@H](O)[C@@H](O)[C@H]1O [Myo-Inositol, myo-inositol]
% Activity (percentage of trypsin activity) (1:900 dilution of 3% myo-inositol): 93.8% and 112.4% and 101.4% and 108.9% and 108.0% and 121.4% and 95.6% and 109.2%

C=CCCCCCCCCC(=O)N[C@@H](Cc1ccccc1)C(=O)O [N-undecylenoyl-L-phenylalanine]
% Activity (percentage of trypsin activity) (1:900 dilution of 1% N-undecylenoyl-L-phenylalanine, >100% up-regulation, <100% inhibition): 91.4% and 104.9% and 97.2% and 100.5% and 121.8% and 116.3% and 79.9% and 99.8%
